# Like-named read-outs stand apart in the source and are kept apart here.
# Columns and labels:
# porcine brain tubulin = test: Isothermal titration calorimetry, free (unpolymerized) tubulin at 4 °C; type: binding; details: association constant, ITC
# Description: (§1) ITC experiments were performed using a Microcal VP-ITC (Malvern) instrument. For polymerized porcine brain tubulin the calorimeter was set at 37 °C. For depolymerized porcine brain tubulin the calorimeter was set at 4 °C. Tubulin concentration was kept below 3 mg mL^−1 to ensure that minimal microtubule formation before any polymerization assays were performed in preparation for ITC experiments. Reverse titrations were used in all ITC experiments due to the low solubility of RPC2 in aqueous solutions. A typical ITC experiment involved fourteen 20 μL injections of tubulin (∼30 μM heterodimers, or 2 mg mL^−1) into a 1.45 mL cell of ligand solution. The ITC thermograms were corrected for titrate and titrant dilution effects by performing the appropriate blank experiments and correcting the observed heats by subtracting the heats of dilution. Corrected ITC titrations were fit with a nonlinear regression algorithm using CHASM, an ITC data analysis program developed in the Lewis laboratory to determine the thermodynamic parameters, including the association constant (K) and changes in free energy (ΔG), enthalpy (ΔH), and entropy (−TΔS).
# Isothermal titration calorimetry (ITC) was used to measure the binding thermodynamics of RPC2 with tubulin and MTs. […]
# MTs = system: MTs; design: method as in PMID 15057285, PMID 29523799; details: competitive binding titrations; cited from earlier work
# [1] = target: T1, preformed microtubules (polymerized porcine brain tubulin) (Sus scrofa, UniProt P02550+P02554); test: Isothermal titration calorimetry, preformed microtubules at 37 °C; type: binding; details: ITC
# T1 construct: For depolymerized porcine brain tubulin the calorimeter was set at 4 °C; purchased Cytoskeleton Inc., (Denver. CO); host or cells: porcine brain (tissue-purified)
# Description: as §1
# Isothermal titration calorimetry (ITC) was used to measure the binding thermodynamics of RPC2 with tubulin and MTs. Reverse titrations (protein introduced into solutions with a fixed ligand concentration) were done as the poor solubility of RPC2 limited its concentration range. […] Experiments were either performed starting at 4 °C or 37 °C to obtain a population of tubulin in the free, unpolymerized state (4 °C) or polymerized state as MTs (37 °C), as these two structures present a different collection of binding sites to the ligand.
# [2] = system: microtubules formed from porcine brain tubulin; test: Electron microscopy of polymerized tubulin; type: biochemical; details: 10 μM
# From the text: Aliquots of polymerized tubulin were placed on 300-mesh carbon-coated, Formvar-treated copper grids and immediately stained with 5–10 successively applied drops of 1% (w/v) uranyl acetate. Excess stain was wicked from the grids with torn filter paper. The grids were examined in a Hitachi H-9500 High-resolution Transmission Electron Microscope.
# MCF7 = test: Cytotoxicity IC50 against MCF7 cells; type: cell-based; details: Homo sapiens
# H358 [3] = test: Cytotoxicity IC50 against H358 cells; type: cell-based; details: Homo sapiens, NCI-H358
# HUVEC = details: cited from earlier work
# MCF10 = details: cited from earlier work
# mouse fibroblast cells [4] = system: mouse fibroblast cells; design: method as in PMID 6103535; details: PTX 0.25 μM, cited from earlier work
# [5] = system: MCF7 and MCF10a cells expressing GFP-EB3; test: Spinning disk confocal imaging of GFP-EB3 comets in live cells; type: cell-based, human; details: IC50 dose
# Description: MCF7 cells were cultured in phenol-red DMEM media (HyClone™, GE healthcare) supplemented with 10% FBS and penicillin/streptomycin at 37 °C in 5% CO2. MCF10A cells were cultured in low-calcium phenol-red DMEM/F12 (HyClone™, GE healthcare) supplemented with final concentration of 5% horse serum, 20 ng mL^−1 EGF, […] hydrocortisone, 100 ng mL^−1 Cholera toxin, 10 μg mL^−1 insulin, and 1% pen-strep. For live imaging, 500 000 cells per mL of both MCF7 and MCF10A cells were transfected with the cDNA (EGFP-EB3), and then cultured on 10 μg mL^−1 fibronectin coated 35 mm glass-bottom dishes (Cellvis, cat#: D35-20-1.5-N). Transfection of EGFP-EB3 was performed using a Lonza Nucleofector Device with Ingenio electroporation kit (Cat# MIR 50112, Mirus). Cells were treated with RPC2 18–24 hours post-transfection to allow time for cDNA expression. To minimize photobleaching, phenol-free DMEM was supplemented with 10% FBS and 25 mM HEPES, pH = 7.2 replaced the original media and was administered before RPC2 treatment. Time-lapse imaging was obtained before, 30 min, 1 h, 2 h, and 3 h after RPC2 treatment for both MCF7 and MCF10A. Images were obtained on a Zeiss Axiovert (Jena, Germany) microscope with a Zeiss alpha Plan-Fluar 100×, 1.45 NA oil objective and a spinning disk confocal scan head (Yokogawa CSU-X1, Tokyo, Japan). […]
# H358 [6] = details: cited from earlier work
# mouse fibroblast cells [7] = system: mouse fibroblast cells; design: method as in PMID 20059301; details: mouse fibroblast cell line; cited from earlier work
# [8] = system: free tubulin in H358 cells; test: Western blot of free tubulin in cytosol of H358 cells; type: cell-based, human; details: PTX 0.1 μM or RPC2 1.7 μM, 12 h
# Description: […] The confluent 60 mm dishes of cells were washed 3 times with 37 °C PBS, then lysed in microtubule stabilization buffer (Tris–HCl pH 6.8, 20 mM, NaCl 140 mM, MgCl2 1 mM, NP40 0.5%, EGTA 2 mM, 10 μM of Taxol) and protease inhibitors (100× Protease Inhibitor Cocktail (PIC) and 100× phenylmethane sulfonyl fluoride (PMSF)). Then, the cells were scraped, mixed and quickly transfer to microtubes. These samples were then spun at 10 000 rpm for 20 minutes, the supernatants containing free tubulin were collected and a bicinchoninic acid (BCA) protein assay was performed to check the protein quantity. Equal amounts of protein sample were prepared in Laemmli sample buffer and were boiled for 5 min at 95 °C. Proteins were resolved on a 12% polyacrylamide gel. The proteins were transferred to a nitrocellulose membrane for 1.5 h at 100 V. The nitrocellulose membrane was stained for 1 min with Ponceau Red to verify the efficiency of the transfer. Then, the membrane was blocked in 5% skim milk for 1 h at room temperature and incubated with primary alpha tubulin monoclonal antibody in 5% BSA overnight at 4 °C. The membrane was washed 3 times with TBST buffer before being probed with secondary antibodies conjugated to HRP, then the membrane was incubated for 1 h at room temperature before it was washed 3 times again with TBST buffer. […]
# [9] = mice, intraperitoneal injection; cited from earlier work
# [10] = rats, intraperitoneal injection; cited from earlier work
# MCF10 and MCF7 cells = system: MCF10 and MCF7 cells; design: method as in PMID 28605571; details: cited from earlier work
# T1 sequence (P02550 whole entry): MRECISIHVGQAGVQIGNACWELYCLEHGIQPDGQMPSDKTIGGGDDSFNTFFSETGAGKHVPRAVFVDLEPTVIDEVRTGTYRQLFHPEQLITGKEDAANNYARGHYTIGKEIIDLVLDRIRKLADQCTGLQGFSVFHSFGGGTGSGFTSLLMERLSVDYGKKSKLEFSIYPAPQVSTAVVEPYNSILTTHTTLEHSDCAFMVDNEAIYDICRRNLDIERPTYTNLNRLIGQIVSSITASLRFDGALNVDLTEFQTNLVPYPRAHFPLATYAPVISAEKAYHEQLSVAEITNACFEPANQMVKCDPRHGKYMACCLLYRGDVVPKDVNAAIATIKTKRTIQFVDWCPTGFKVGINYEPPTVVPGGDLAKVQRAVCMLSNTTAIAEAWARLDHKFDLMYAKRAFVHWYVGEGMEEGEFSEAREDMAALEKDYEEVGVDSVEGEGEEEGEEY
# T1 sequence (P02554 whole entry): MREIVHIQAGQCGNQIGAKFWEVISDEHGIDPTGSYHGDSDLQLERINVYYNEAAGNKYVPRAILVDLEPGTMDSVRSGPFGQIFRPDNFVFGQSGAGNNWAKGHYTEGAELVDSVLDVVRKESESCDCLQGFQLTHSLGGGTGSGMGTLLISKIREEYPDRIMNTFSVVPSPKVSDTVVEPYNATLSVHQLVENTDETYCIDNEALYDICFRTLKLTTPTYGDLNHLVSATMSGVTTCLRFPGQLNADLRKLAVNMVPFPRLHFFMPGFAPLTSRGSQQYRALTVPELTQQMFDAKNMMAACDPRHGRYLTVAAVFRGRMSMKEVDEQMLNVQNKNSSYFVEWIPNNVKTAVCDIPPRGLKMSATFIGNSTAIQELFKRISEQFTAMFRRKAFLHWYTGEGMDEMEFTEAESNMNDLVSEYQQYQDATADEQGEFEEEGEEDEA
molecule,measurement,setting,value
"CC(=O)O[C@@]12CO[C@@H]1C[C@H](O)[C@@]1(C)C(=O)[C@H](O)C3=C(C)[C@@H](OC(=O)[C@H](O)[C@@H](NC(=O)OC(C)(C)C)c4ccccc4)C[C@@](O)([C@@H](OC(=O)c4ccccc4)[C@H]21)C3(C)C [DTX, docetaxel]",K,porcine brain tubulin,8.1e+06 M⁻¹
same,association constant with MTs,MTs,3.09e+07 M⁻¹
same,ΔG,"[1]; MT, 37 °C",-9.2 ± 0.9 kcal/mol
same,ΔH,"[1]; MT, 37 °C",-33.4 ± 6.5 kcal/mol
same,Kd,"[1]; preformed MTs, read-out: associative binding constant K to preformed microtubules (converted)",182 nM
same,K,"[1]; association constant, MT, 37 °C",5.5e+06 M⁻¹
"COC(=O)Nc1nc2ccc(C(=O)c3cccs3)cc2[nH]1 [NCZ, nocodazole]",Appearance of MTs in TEM images,[2],only small MT fragments or tubulin dimers are apparent
same,IC50,MCF7,3200 nM
same,IC50,H358 [3],1000 nM
same,IC50,HUVEC,200 nM
same,IC50,MCF10,480 nM
"CC(=O)O[C@H]1C(=O)[C@@]2(C)[C@H]([C@H](OC(=O)c3ccccc3)[C@]3(O)C[C@H](OC(=O)[C@H](O)[C@@H](NC(=O)c4ccccc4)c4ccccc4)C(C)=C1C3(C)C)[C@]1(OC(C)=O)CO[C@@H]1C[C@@H]2O [PTX, paclitaxel]",population in G2/M,mouse fibroblast cells [4]; after 9 h,~50%
same,population in G2/M,mouse fibroblast cells [4]; by 27 h,~100%
same,time point at which changes in MT comet motion were apparent,[5],30 min
same,association constant with MTs,MTs,1.07e+07 M⁻¹
same,IC50,H358 [6],100 nM
same,IC50,mouse fibroblast cells [7],860 nM
same,IC50,HUVEC,0.82 nM
same,Amount of free tubulin in the cytosol (western blot),[8],substantially reduce the amount of free tubulin
same,IC50,MCF10,200 nM
[106Ru+2].[O-][Cl+3]([O-])([O-])[O-].[O-][Cl+3]([O-])([O-])[O-].c1cnc2c(c1)ccc1cccnc12.c1cnc2c(c1)ccc1cccnc12.c1cnc2c(c1)ccc1cccnc12 [[^106Ru(phen)3][ClO4]2],time to excretion of the intact cation in the urine,[9],about 12 h
same,time to excretion of the intact cation in the urine,[10],about 12 h
[(DIP)2Ru(tatpp)Ru(DIP)2]^2+,selectivity index (SI = IC50 MCF10/IC50 MCF7),MCF10 and MCF7 cells,11
[(DIP)2Ru(tatpp)]^2+,selectivity index (SI = IC50 MCF10/IC50 MCF7),MCF10 and MCF7 cells,71
